Experimental data reported in paper PMC5218480 (PLoS ONE, 2017).

Tested on: MV-4-11 cells
Assay: Gene expression microarray analysis (Affymetrix PrimeView) and GSEA
Type: cell-based, human
Set-up: RFU PODN (11730768_x_at) / Fold change /veh PODN (11730768_x_at) / RFU LINC00158 (11744669_a_at) / Fold change /veh LINC00158 (11744669_a_at) / RFU DUSP10 (11751237_a_at) / Fold change /veh DUSP10 (11751237_a_at) / RFU ID3 (11757404_x_at) / Fold change /veh ID3 (11757404_x_at) / RFU PLEKHG5 (11737974_s_at) / Fold change /veh PLEKHG5 (11737974_s_at) / RFU LRRC4B (11730491_at) / Fold change /veh LRRC4B (11730491_at) / RFU GIMAP4 (11747438_a_at) / Fold change /veh GIMAP4 (11747438_a_at) / RFU KRT8 (11758183_x_at) / Fold change /veh KRT8 (11758183_x_at) / RFU CNN1 (11734310_a_at) / Fold change /veh CNN1 (11734310_a_at) / RFU VPS37D (11726825_at) / Fold change /veh VPS37D (11726825_at) / RFU C10orf10 (11716522_x_at) / Fold change /veh C10orf10 (11716522_x_at) / RFU KIR2DL2 /// KIR2DL4 /// KIR2DL5A /// KIR2DL5B /// KIR2DS1 /// KIR2DS2 /// KIR2DS3 /// KIR2DS4 /// KIR3DL3 /// KIR3DL3 /// KIR3DS1 (11738374_at) / Fold change /veh KIR2DL2 /// KIR2DL4 /// KIR2DL5A /// KIR2DL5B /// KIR2DS1 /// KIR2DS2 /// KIR2DS3 /// KIR2DS4 /// KIR3DL3 /// KIR3DL3 /// KIR3DS1 (11738374_at) / RFU C1QL1 (11718748_at) / Fold change /veh C1QL1 (11718748_at) / RFU TMPRSS4 (11747572_a_at) / Fold change /veh TMPRSS4 (11747572_a_at) / RFU HAMP (11756126_x_at) / Fold change /veh HAMP (11756126_x_at) / RFU RNFT2 (11725882_a_at) / Fold change /veh RNFT2 (11725882_a_at) / RFU NR4A2 (11747474_a_at) / Fold change /veh NR4A2 (11747474_a_at) / RFU ABCC12 (11746883_a_at) / Fold change /veh ABCC12 (11746883_a_at) / RFU TMEM136 (11760407_x_at) / Fold change /veh TMEM136 (11760407_x_at) / RFU CLDN22 /// WWC2 (11732394_at) / Fold change /veh CLDN22 /// WWC2 (11732394_at) / RFU HLA-DPB1 (11760878_x_at) / Fold change /veh HLA-DPB1 (11760878_x_at) / RFU SPINT1 (11716480_a_at) / Fold change /veh SPINT1 (11716480_a_at) / RFU GAP43 (11754022_s_at) / Fold change /veh GAP43 (11754022_s_at) / RFU A4GNT (11735810_at) / Fold change /veh A4GNT (11735810_at) / RFU PRB3 (11715151_x_at) / Fold change /veh PRB3 (11715151_x_at) / RFU TUBB4B (11761932_at) / Fold change /veh TUBB4B (11761932_at) / RFU CAPN14 (11732068_a_at) / Fold change /veh CAPN14 (11732068_a_at) / RFU TMCC2 (11721928_a_at) / Fold change /veh TMCC2 (11721928_a_at) / RFU IRGQ (11745062_a_at) / Fold change /veh IRGQ (11745062_a_at) / RFU FAM174B (11720279_a_at) / Fold change /veh FAM174B (11720279_a_at) / RFU TMPRSS4 (11748680_a_at) / Fold change /veh TMPRSS4 (11748680_a_at) / RFU FAM212B (11763350_a_at) / Fold change /veh FAM212B (11763350_a_at) / RFU PLEKHG5 (11743358_a_at) / Fold change /veh PLEKHG5 (11743358_a_at) / RFU ZSCAN30 (11745921_a_at) / Fold change /veh ZSCAN30 (11745921_a_at) / RFU CMKLR1 (11741424_a_at) / Fold change /veh CMKLR1 (11741424_a_at) / RFU LOC101060620 /// MAPK8IP1 (11723275_at) / Fold change /veh LOC101060620 /// MAPK8IP1 (11723275_at) / RFU SPTSSB (11747773_x_at) / Fold change /veh SPTSSB (11747773_x_at) / RFU PRSS12 (11739890_at) / Fold change /veh PRSS12 (11739890_at) / RFU BIN1 (11741810_x_at) / Fold change /veh BIN1 (11741810_x_at) / RFU WNT11 (11732464_a_at) / Fold change /veh WNT11 (11732464_a_at) / RFU C10orf10 (11716521_a_at) / Fold change /veh C10orf10 (11716521_a_at) / RFU C5orf56 (11738089_at) / Fold change /veh C5orf56 (11738089_at) / RFU CYB561 (11721691_x_at) / Fold change /veh CYB561 (11721691_x_at) / RFU ANKRD19P (11752326_a_at) / Fold change /veh ANKRD19P (11752326_a_at) / RFU OR2T12 /// OR2T33 /// OR2T8 (11738714_s_at) / Fold change /veh OR2T12 /// OR2T33 /// OR2T8 (11738714_s_at) / RFU VCAN (11748164_a_at) / Fold change /veh VCAN (11748164_a_at) / RFU JSRP1 (11732532_at) / Fold change /veh JSRP1 (11732532_at) / RFU KRTAP10-11 (11738290_x_at) / Fold change /veh KRTAP10-11 (11738290_x_at) / RFU MYO3A (11730013_a_at) / Fold change /veh MYO3A (11730013_a_at) / RFU EBF3 (11725865_a_at) / Fold change /veh EBF3 (11725865_a_at) / RFU CAMK2N1 (11719241_x_at) / Fold change /veh CAMK2N1 (11719241_x_at) / RFU C5orf56 (11738088_a_at) / Fold change /veh C5orf56 (11738088_a_at) / RFU OLFML3 (11715873_a_at) / Fold change /veh OLFML3 (11715873_a_at) / RFU LOC100653217 /// NTM (11731650_a_at) / Fold change /veh LOC100653217 /// NTM (11731650_a_at) / RFU MAPK11 (11762145_a_at) / Fold change /veh MAPK11 (11762145_a_at) / RFU FIZ1 (11724087_x_at) / Fold change /veh FIZ1 (11724087_x_at) / RFU OASL (11726364_x_at) / Fold change /veh OASL (11726364_x_at) / RFU SOX15 (11748057_x_at) / Fold change /veh SOX15 (11748057_x_at) / RFU CD79A (11719716_a_at) / Fold change /veh CD79A (11719716_a_at) / RFU HIST1H1D (11736915_at) / Fold change /veh HIST1H1D (11736915_at) / RFU CASKIN2 (11723855_a_at) / Fold change /veh CASKIN2 (11723855_a_at) / RFU LOC730098 (11760151_x_at) / Fold change /veh LOC730098 (11760151_x_at) / RFU OR4N2 (11742367_at) / Fold change /veh OR4N2 (11742367_at) / RFU PRRT2 (11749266_a_at) / Fold change /veh PRRT2 (11749266_a_at) / RFU SNX32 (11753110_a_at) / Fold change /veh SNX32 (11753110_a_at) / RFU CDHR5 (11726645_a_at) / Fold change /veh CDHR5 (11726645_a_at) / RFU RCAN1 (11760418_a_at) / Fold change /veh RCAN1 (11760418_a_at) / RFU FAM167A (11723789_a_at) / Fold change /veh FAM167A (11723789_a_at) / RFU FAM26E (11764081_at) / Fold change /veh FAM26E (11764081_at) / RFU ISYNA1 (11749810_s_at) / Fold change /veh ISYNA1 (11749810_s_at) / RFU ACY1 (11761880_at) / Fold change /veh ACY1 (11761880_at) / RFU 11764098_at / Fold change /veh 11764098_at / RFU SAMD14 (11745864_x_at) / Fold change /veh SAMD14 (11745864_x_at) / RFU NPB (11741838_a_at) / Fold change /veh NPB (11741838_a_at) / RFU TMPRSS6 (11731388_a_at) / Fold change /veh TMPRSS6 (11731388_a_at) / RFU KRTAP10-2 (11738614_at) / Fold change /veh KRTAP10-2 (11738614_at) / RFU ARHGAP8 /// PRR5-ARHGAP8 (11727945_x_at) / Fold change /veh ARHGAP8 /// PRR5-ARHGAP8 (11727945_x_at) / RFU KRTAP5-7 /// NADSYN1 (11734609_at) / Fold change /veh KRTAP5-7 /// NADSYN1 (11734609_at) / RFU RASL12 (11751679_a_at) / Fold change /veh RASL12 (11751679_a_at) / RFU CDKN2B (11736163_a_at) / Fold change /veh CDKN2B (11736163_a_at) / RFU PRF1 (11729649_at) / Fold change /veh PRF1 (11729649_at) / RFU, ZNF638 /// ZNF638-IT1 / Fold change vs veh, ZNF638 /// ZNF638-IT1 / RFU, PANK3 / Fold change vs veh, PANK3 / RFU, SH3YL1 / Fold change vs veh, SH3YL1 / RFU, ZEB2 / Fold change vs veh, ZEB2 / RFU, NRIP1 / Fold change vs veh, NRIP1 / RFU, PTTG1IP / Fold change vs veh, PTTG1IP / RFU, CAPN2 / Fold change vs veh, CAPN2 / RFU, MED14 / Fold change vs veh, MED14 / RFU, SNORA58 / Fold change vs veh, SNORA58 / RFU, C1orf63 / Fold change vs veh, C1orf63 / RFU, LRRFIP1 / Fold change vs veh, LRRFIP1 / RFU, NDUFAF7 / Fold change vs veh, NDUFAF7 / RFU, SLC12A2 / Fold change vs veh, SLC12A2 / RFU, IBTK / Fold change vs veh, IBTK / RFU, ESF1 / Fold change vs veh, ESF1 / Fold change vs veh, TMEM50B / RFU, TAOK1 / Fold change vs veh, TAOK1 / RFU, ACBD3 / Fold change vs veh, ACBD3 / RFU, TMA16 / Fold change vs veh, TMA16 / RFU, RWDD3 / Fold change vs veh, RWDD3 / RFU, BCAT1 / Fold change vs veh, BCAT1 / RFU, EDEM3 / Fold change vs veh, EDEM3 / RFU, TMEM33 / Fold change vs veh, TMEM33 / RFU, WDR75 / Fold change vs veh, WDR75 / RFU, AHCTF1 / Fold change vs veh, AHCTF1 / RFU, TFRC / Fold change vs veh, TFRC / RFU, ZDHHC17 / Fold change vs veh, ZDHHC17 / RFU, NOM1 / Fold change vs veh, NOM1 / RFU, ARL8B / Fold change vs veh, ARL8B / RFU, ZBTB11 / Fold change vs veh, ZBTB11 / RFU, TAMM41 / Fold change vs veh, TAMM41 / RFU, KIAA1704 /// LOC100996395 / Fold change vs veh, KIAA1704 /// LOC100996395 / RFU, ING1 / Fold change vs veh, ING1 / RFU, TRMT61B / Fold change vs veh, TRMT61B / RFU, FUBP3 / Fold change vs veh, FUBP3 / RFU, TP53 / Fold change vs veh, TP53 / RFU, TNKS2 / Fold change vs veh, TNKS2 / RFU, ZFP14 / Fold change vs veh, ZFP14 / RFU, ACTR2 / Fold change vs veh, ACTR2 / RFU, PPP3R1 / Fold change vs veh, PPP3R1 / RFU, PIK3R1 / Fold change vs veh, PIK3R1 / RFU, HNRNPA1 / Fold change vs veh, HNRNPA1 / RFU, RNF170 / Fold change vs veh, RNF170 / RFU, ZNF28 / Fold change vs veh, ZNF28 / RFU, RNGTT / Fold change vs veh, RNGTT / RFU, OGT / Fold change vs veh, OGT / RFU, BRD1 / Fold change vs veh, BRD1 / RFU, MARS / Fold change vs veh, MARS / RFU, ZNF655 / Fold change vs veh, ZNF655 / RFU, FAHD1 / Fold change vs veh, FAHD1 / RFU, BDP1 / Fold change vs veh, BDP1 / RFU, LRRCC1 / Fold change vs veh, LRRCC1 / RFU, ARID1A / Fold change vs veh, ARID1A / RFU, ZNF146 / Fold change vs veh, ZNF146 / RFU, ZNF330 / Fold change vs veh, ZNF330 / RFU, GPN3 / Fold change vs veh, GPN3 / RFU, C9orf123 / Fold change vs veh, C9orf123 / RFU, N4BP2L2 / Fold change vs veh, N4BP2L2 / RFU, ARFIP1 / Fold change vs veh, ARFIP1 / RFU, FAM179B / Fold change vs veh, FAM179B / RFU, BCL10 / Fold change vs veh, BCL10 / RFU, UHRF1BP1L / Fold change vs veh, UHRF1BP1L / RFU, BET1 / Fold change vs veh, BET1 / RFU, CNOT2 / Fold change vs veh, CNOT2 / RFU, ZNF268 / Fold change vs veh, ZNF268 / Fold change vs veh, ZNF507 / RFU, DGCR2 / Fold change vs veh, DGCR2 / RFU, WDSUB1 / Fold change vs veh, WDSUB1 / Fold change vs veh, HSP90B1 /// MIR3652 / RFU, ADSS / Fold change vs veh, ADSS / RFU, GK / Fold change vs veh, GK / RFU, ZNF148 / Fold change vs veh, ZNF148 / RFU, TAF9 / Fold change vs veh, TAF9 / RFU, SLC1A5 / Fold change vs veh, SLC1A5 / RFU, SLMO2 / Fold change vs veh, SLMO2 / RFU, ABCC4 / Fold change vs veh, ABCC4 / RFU, LOC101060439 /// RAP1B / Fold change vs veh, LOC101060439 /// RAP1B / RFU, RFX7 / Fold change vs veh, RFX7 / RFU, GTPBP10 / Fold change vs veh, GTPBP10 / RFU, CNEP1R1 / Fold change vs veh, CNEP1R1 / RFU, BIVM-ERCC5 /// ERCC5 / Fold change vs veh, BIVM-ERCC5 /// ERCC5 / RFU, ILF3 / Fold change vs veh, ILF3 / RFU 11762660_at / Fold change /veh 11762660_at / RFU VCAN (11757783_s_at) / Fold change /veh VCAN (11757783_s_at) / RFU DDX43 (11728927_at) / Fold change /veh DDX43 (11728927_at) / RFU KRT8 (11758188_x_at) / Fold change /veh KRT8 (11758188_x_at) / RFU NKD1 (11759106_at) / Fold change /veh NKD1 (11759106_at) / RFU SRD5A1 (11742802_a_at) / Fold change /veh SRD5A1 (11742802_a_at) / RFU TPSAB1 /// TPSB2 (11721975_s_at) / Fold change /veh TPSAB1 /// TPSB2 (11721975_s_at) / RFU GSTM3 (11746129_a_at) / Fold change /veh GSTM3 (11746129_a_at) / RFU IL23R (11737362_x_at) / Fold change /veh IL23R (11737362_x_at) / RFU TMEM51 (11727254_a_at) / Fold change /veh TMEM51 (11727254_a_at) / RFU PIWIL2 (11732686_x_at) / Fold change /veh PIWIL2 (11732686_x_at) / RFU ORM1 (11744905_x_at) / Fold change /veh ORM1 (11744905_x_at) / RFU CCDC152 (11743942_at) / Fold change /veh CCDC152 (11743942_at) / RFU ECM1 (11717891_a_at) / Fold change /veh ECM1 (11717891_a_at) / RFU IL23R (11748794_a_at) / Fold change /veh IL23R (11748794_a_at) / RFU TNFAIP8L3 (11732012_x_at) / Fold change /veh TNFAIP8L3 (11732012_x_at) / RFU MBOAT4 (11741988_at) / Fold change /veh MBOAT4 (11741988_at) / RFU 11764193_at / Fold change /veh 11764193_at / RFU TMEM53 (11763286_at) / Fold change /veh TMEM53 (11763286_at) / RFU MAGEB2 (11727129_at) / Fold change /veh MAGEB2 (11727129_at) / RFU TMEM200A (11744735_a_at) / Fold change /veh TMEM200A (11744735_a_at) / RFU CCDC152 (11751479_a_at) / Fold change /veh CCDC152 (11751479_a_at) / RFU FAM211A (11726209_a_at) / Fold change /veh FAM211A (11726209_a_at) / RFU RGS16 (11746705_a_at) / Fold change /veh RGS16 (11746705_a_at) / RFU VCAN (11755009_s_at) / Fold change /veh VCAN (11755009_s_at) / RFU RHOB (11743442_s_at) / Fold change /veh RHOB (11743442_s_at) / RFU RGS16 (11720943_a_at) / Fold change /veh RGS16 (11720943_a_at) / RFU RGS16 (11720944_at) / Fold change /veh RGS16 (11720944_at) / RFU, VPS4B / Fold change vs veh, VPS4B / RFU, CREB1 / Fold change vs veh, CREB1 / RFU, DNAJC13 / Fold change vs veh, DNAJC13 / RFU, GNAQ / Fold change vs veh, GNAQ / RFU, CDK5R1 / Fold change vs veh, CDK5R1 / RFU, ZRANB3 / Fold change vs veh, ZRANB3 / RFU, CUL4A / Fold change vs veh, CUL4A / RFU, CCNY / Fold change vs veh, CCNY / RFU, UFL1 / Fold change vs veh, UFL1 / RFU, COG3 / Fold change vs veh, COG3 / RFU, DIAPH2 / Fold change vs veh, DIAPH2 / RFU, SKA2 / Fold change vs veh, SKA2 / RFU, AFF3 / Fold change vs veh, AFF3 / RFU, LMF1 / Fold change vs veh, LMF1 / RFU, IPO11 / Fold change vs veh, IPO11 / RFU, DFFB / Fold change vs veh, DFFB / RFU, FOXP1 / Fold change vs veh, FOXP1 / RFU, CARD8 / Fold change vs veh, CARD8 / RFU, STRN3 / Fold change vs veh, STRN3 / RFU, ADK / Fold change vs veh, ADK / RFU, RASSF2 / Fold change vs veh, RASSF2 / RFU, WIPF1 / Fold change vs veh, WIPF1 / RFU, LARP1B / Fold change vs veh, LARP1B / RFU, RASA1 / Fold change vs veh, RASA1 / RFU, RB1 / Fold change vs veh, RB1 / RFU, PPFIA1 / Fold change vs veh, PPFIA1 / RFU, MAT2A / Fold change vs veh, MAT2A / RFU, CCT5 / Fold change vs veh, CCT5 / RFU, WDR92 / Fold change vs veh, WDR92 / RFU, CUX1 / Fold change vs veh, CUX1 / RFU, TTC7A / Fold change vs veh, TTC7A / RFU, TMEM135 / Fold change vs veh, TMEM135 / RFU, DEPTOR / Fold change vs veh, DEPTOR / RFU, CPM / Fold change vs veh, CPM / RFU, DNAJB6 / Fold change vs veh, DNAJB6 / RFU, CACNA2D3 / Fold change vs veh, CACNA2D3 / RFU, DTX4 / Fold change vs veh, DTX4 / RFU, TFCP2 / Fold change vs veh, TFCP2 / RFU, GMCL1 /// GMCL1P1 / Fold change vs veh, GMCL1 /// GMCL1P1 / RFU, AEBP2 / Fold change vs veh, AEBP2 / RFU, SNHG1 /// SNORD22 /// SNORD25 /// SNORD26 /// SNORD27 /// SNORD28 /// SNORD29 /// SNORD31 / Fold change vs veh, SNHG1 /// SNORD22 /// SNORD25 /// SNORD26 /// SNORD27 /// SNORD28 /// SNORD29 /// SNORD31 / Fold change (Aza/veh), C12orf56 (ProbeSet 11735607_a_at) / Fold change (ACY-1035/veh), C12orf56 (ProbeSet 11735607_a_at) / Fold change (Aza/veh), FGFR1OP (ProbeSet 11751329_s_at) / Fold change (ACY-1035/veh), FGFR1OP (ProbeSet 11751329_s_at) / Fold change (Aza/veh), VPS36 (ProbeSet 11739960_a_at) / Fold change (ACY-1035/veh), VPS36 (ProbeSet 11739960_a_at) / RFU SYPL1 (11715823_x_at) / Fold change /veh SYPL1 (11715823_x_at) / RFU IGFBP7 (11715501_s_at) / Fold change /veh IGFBP7 (11715501_s_at) / RFU REEP3 (11722064_at) / Fold change /veh REEP3 (11722064_at) / RFU IGLL1 (11728026_x_at) / Fold change /veh IGLL1 (11728026_x_at): dose or concentration left out as unconfirmed
Settings: ProbeSet 11754607_s_at; LIST B

Q: `Nc1ncn([C@@H]2O[C@H](CO)[C@@H](O)[C@H]2O)c(=O)n1` [azacitidine] was tested. Which “Fold change vs veh, HSP90B1 /// MIR3652” value did it give?
A: 0.90
